Results on twelve cell lines are retold here after the supplement of paper PMC10307832.

Common to all, as to experiment: relative viability (nuclei count vs DMSO), 5 days (fraction); higher = more cells survive
Compound in the experiment “Vismodegib + OSI-027”: CS(=O)(=O)c1ccc(C(=O)Nc2ccc(Cl)c(-c3ccccn3)c2)c(Cl)c1 [Vismodegib] + COc1cccc2cc(-c3nc([C@H]4CC[C@H](C(=O)O)CC4)n4ncnc(N)c34)[nH]c12 [OSI-027] (partner 0.5 µM)
In a few lines: (§1)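 Nuclei were stained with Hoechst during a one-step fixation (final 0.05% Triton X-100, 1% formaldehyde, 1 ug/ml Hoechst) carried out 5 days after dosing, then counted on 4× images. The cells, lung cancer lines in 1536-well plates, had been dosed by pin tool the day after seeding with one drug alone or a fixed anchor-drug dose plus five library-drug doses (not always all listed) in √10 steps. Relative viability is the nuclei count in treated wells divided by that in vehicle wells, and each value is the median of duplicate plates.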

Compound in experiment [1]: N#CC[C@H](C1CCCC1)n1cc(-c2ncnc3[nH]ccc23)cn1 [Ruxolitinib] + CC(=O)c1c(C)c2cnc(Nc3ccc(N4CCNCC4)cn3)nc2n(C2CCCC2)c1=O [Palbociclib] (partner 0.5 µM)
In a few lines:
as §1

Compound in the experiment “Ruxolitinib + Pictilisib”: N#CC[C@H](C1CCCC1)n1cc(-c2ncnc3[nH]ccc23)cn1 [Ruxolitinib] + CS(=O)(=O)N1CCN(Cc2cc3nc(-c4cccc5[nH]ncc45)nc(N4CCOCC4)c3s2)CC1 [Pictilisib] (partner 1 µM)
In a few lines: as §1

Compound in the experiment “Ruxolitinib + Foretinib”: N#CC[C@H](C1CCCC1)n1cc(-c2ncnc3[nH]ccc23)cn1 [Ruxolitinib] + COc1cc2c(Oc3ccc(NC(=O)C4(C(=O)Nc5ccc(F)cc5)CC4)cc3F)ccnc2cc1OCCCN1CCOCC1 [Foretinib] (partner 0.25 µM)
In a few lines: as §1

Regarding HCC-44, the relative viability in the experiment with Vismodegib + OSI-027 (first compound 0.08 µM) was determined as 0.532; in the experiment with Vismodegib + OSI-027 (first compound 0.253 µM), 0.482; in the experiment with Vismodegib + OSI-027 (first compound 0.8 µM) it was 0.453; with Vismodegib + OSI-027 (first compound 2.53 µM) it was 0.526; with Vismodegib + OSI-027 (first compound 8 µM) it was 0.611; in experiment [1] (first compound 0.08 µM), 0.995. The relative viability in experiment [1] (first compound 0.253 µM) was determined as 1.03; in experiment [1] (first compound 0.8 µM), 0.98; in experiment [1] (first compound 2.53 µM), 0.942; in experiment [1] (first compound 8 µM), 0.947; with Ruxolitinib + Pictilisib (first compound 0.08 µM) it was 0.594; with Ruxolitinib + Pictilisib (first compound 0.253 µM) it was 0.649. Besides, the relative viability came out at 0.686 in the experiment with Ruxolitinib + Pictilisib (first compound 0.8 µM), 0.463 with Ruxolitinib + Pictilisib (first compound 2.53 µM) and 0.307 with Ruxolitinib + Pictilisib (first compound 8 µM).

On to IA-LM, for which the relative viability is 1.04 in the experiment with Ruxolitinib + Foretinib (first compound 0.08 µM); 1.19 in the experiment with Ruxolitinib + Foretinib (first compound 0.253 µM); 1.34 with Ruxolitinib + Foretinib (first compound 0.8 µM); 1.22 in the experiment with Ruxolitinib + Foretinib (first compound 2.53 µM); 0.885 in the experiment with Ruxolitinib + Foretinib (first compound 8 µM); 0.349 with Ruxolitinib + Pictilisib (first compound 0.08 µM). Further, the relative viability turned out to be 0.35 with Ruxolitinib + Pictilisib (first compound 0.253 µM), 0.387 with Ruxolitinib + Pictilisib (first compound 0.8 µM), 0.544 with Ruxolitinib + Pictilisib (first compound 2.53 µM) and 0.46 in the experiment with Ruxolitinib + Pictilisib (first compound 8 µM).

Turning to NCI-H522, the relative viability in the experiment with Vismodegib + OSI-027 (first compound 0.08 µM) is 0.805; with Vismodegib + OSI-027 (first compound 0.253 µM), 0.742; in the experiment with Vismodegib + OSI-027 (first compound 0.8 µM), 0.672; in the experiment with Vismodegib + OSI-027 (first compound 2.53 µM) it was 0.659; with Vismodegib + OSI-027 (first compound 8 µM), 0.812; in experiment [1] (first compound 0.08 µM), 1.12. The relative viability in experiment [1] (first compound 0.253 µM) is 1.09; in experiment [1] (first compound 0.8 µM), 1.16; in experiment [1] (first compound 2.53 µM) it was 0.869; in experiment [1] (first compound 8 µM), 0.933.

In the case of NCI-H596, the relative viability is 0.791 in the experiment with Vismodegib + OSI-027 (first compound 0.08 µM); 0.634 in the experiment with Vismodegib + OSI-027 (first compound 0.253 µM); 0.672 in the experiment with Vismodegib + OSI-027 (first compound 0.8 µM); 0.734 in the experiment with Vismodegib + OSI-027 (first compound 2.53 µM); 0.781 with Vismodegib + OSI-027 (first compound 8 µM); 0.907 with Ruxolitinib + Foretinib (first compound 0.08 µM). Also, the relative viability with Ruxolitinib + Foretinib (first compound 0.253 µM) worked out at 0.848; with Ruxolitinib + Foretinib (first compound 0.8 µM), 0.888; with Ruxolitinib + Foretinib (first compound 2.53 µM) it was 0.947; with Ruxolitinib + Foretinib (first compound 8 µM), 0.804; with Ruxolitinib + Pictilisib (first compound 0.08 µM), 0.379; with Ruxolitinib + Pictilisib (first compound 0.253 µM), 0.339. Further, the relative viability with Ruxolitinib + Pictilisib (first compound 0.8 µM) is 0.387; with Ruxolitinib + Pictilisib (first compound 2.53 µM), 0.418; with Ruxolitinib + Pictilisib (first compound 8 µM) it was 0.386.

With NCI-H1299, the relative viability in the experiment with Ruxolitinib + Foretinib (first compound 0.08 µM) came to 1.09; in the experiment with Ruxolitinib + Foretinib (first compound 0.253 µM) it was 1.1; in the experiment with Ruxolitinib + Foretinib (first compound 0.8 µM), 1.05; with Ruxolitinib + Foretinib (first compound 2.53 µM), 0.982; in the experiment with Ruxolitinib + Foretinib (first compound 8 µM), 0.853; with Ruxolitinib + Pictilisib (first compound 0.08 µM) it was 0.773. Besides, the relative viability with Ruxolitinib + Pictilisib (first compound 0.253 µM) is 0.761; in the experiment with Ruxolitinib + Pictilisib (first compound 0.8 µM), 0.883; in the experiment with Ruxolitinib + Pictilisib (first compound 2.53 µM), 0.716; with Ruxolitinib + Pictilisib (first compound 8 µM), 0.504.

NCI-H1563: the relative viability in the experiment with Vismodegib + OSI-027 (first compound 0.08 µM) came out at 0.757; with Vismodegib + OSI-027 (first compound 0.253 µM) it was 0.734; with Vismodegib + OSI-027 (first compound 0.8 µM), 0.767; with Vismodegib + OSI-027 (first compound 2.53 µM), 0.694; with Vismodegib + OSI-027 (first compound 8 µM), 0.809; with Ruxolitinib + Foretinib (first compound 0.08 µM), 0.994. Further, the relative viability is 0.976 with Ruxolitinib + Foretinib (first compound 0.253 µM); 0.997 with Ruxolitinib + Foretinib (first compound 0.8 µM); 0.852 with Ruxolitinib + Foretinib (first compound 2.53 µM); 0.94 in the experiment with Ruxolitinib + Foretinib (first compound 8 µM); 0.653 with Ruxolitinib + Pictilisib (first compound 0.08 µM); 0.669 in the experiment with Ruxolitinib + Pictilisib (first compound 0.253 µM). Besides, the relative viability was determined as 0.691 with Ruxolitinib + Pictilisib (first compound 0.8 µM), 0.623 in the experiment with Ruxolitinib + Pictilisib (first compound 2.53 µM) and 0.661 with Ruxolitinib + Pictilisib (first compound 8 µM).

In the case of NCI-H1623, the relative viability in the experiment with Vismodegib + OSI-027 (first compound 0.08 µM) is 0.476; in the experiment with Vismodegib + OSI-027 (first compound 0.253 µM) it was 0.415; with Vismodegib + OSI-027 (first compound 0.8 µM), 0.461; in the experiment with Vismodegib + OSI-027 (first compound 2.53 µM), 0.419; in the experiment with Vismodegib + OSI-027 (first compound 8 µM), 0.456; with Ruxolitinib + Foretinib (first compound 0.08 µM) it was 0.908. Also, the relative viability with Ruxolitinib + Foretinib (first compound 0.253 µM) was 0.94; with Ruxolitinib + Foretinib (first compound 0.8 µM), 0.971; with Ruxolitinib + Foretinib (first compound 2.53 µM), 1.01; in the experiment with Ruxolitinib + Foretinib (first compound 8 µM) it was 0.994.

Turning to NCI-H1648, the relative viability in the experiment with Vismodegib + OSI-027 (first compound 0.08 µM) was 0.22; with Vismodegib + OSI-027 (first compound 0.253 µM), 0.27; with Vismodegib + OSI-027 (first compound 0.8 µM), 0.29; in the experiment with Vismodegib + OSI-027 (first compound 2.53 µM) it was 0.258; with Vismodegib + OSI-027 (first compound 8 µM) it was 0.207; in experiment [1] (first compound 0.08 µM) it was 0.294. In addition, the relative viability in experiment [1] (first compound 0.253 µM) is 0.302; in experiment [1] (first compound 0.8 µM) it was 0.344; in experiment [1] (first compound 2.53 µM), 0.345; in experiment [1] (first compound 8 µM), 0.371.

Regarding NCI-H1703, the relative viability with Ruxolitinib + Foretinib (first compound 0.08 µM) came out at 0.298; with Ruxolitinib + Foretinib (first compound 0.253 µM) it was 0.338; in the experiment with Ruxolitinib + Foretinib (first compound 0.8 µM), 0.376; in the experiment with Ruxolitinib + Foretinib (first compound 2.53 µM) it was 0.329; in the experiment with Ruxolitinib + Foretinib (first compound 8 µM) it was 0.287; in the experiment with Ruxolitinib + Pictilisib (first compound 0.08 µM) it was 0.255. The relative viability is 0.265 with Ruxolitinib + Pictilisib (first compound 0.253 µM), 0.232 with Ruxolitinib + Pictilisib (first compound 0.8 µM), 0.24 with Ruxolitinib + Pictilisib (first compound 2.53 µM) and 0.205 with Ruxolitinib + Pictilisib (first compound 8 µM).

Take NCI-H1792: the relative viability in the experiment with Vismodegib + OSI-027 (first compound 0.08 µM) was 0.766; with Vismodegib + OSI-027 (first compound 0.253 µM) it was 0.75; with Vismodegib + OSI-027 (first compound 0.8 µM), 0.606; with Vismodegib + OSI-027 (first compound 2.53 µM) it was 0.679; with Vismodegib + OSI-027 (first compound 8 µM), 0.623; in experiment [1] (first compound 0.08 µM), 0.595. The relative viability in experiment [1] (first compound 0.253 µM) came out at 0.565; in experiment [1] (first compound 0.8 µM), 0.631; in experiment [1] (first compound 2.53 µM) it was 0.632; in experiment [1] (first compound 8 µM), 0.575; with Ruxolitinib + Pictilisib (first compound 0.08 µM), 0.259; with Ruxolitinib + Pictilisib (first compound 0.253 µM) it was 0.289. Moreover, the relative viability with Ruxolitinib + Pictilisib (first compound 0.8 µM) was found to be 0.278; in the experiment with Ruxolitinib + Pictilisib (first compound 2.53 µM), 0.197; in the experiment with Ruxolitinib + Pictilisib (first compound 8 µM), 0.214.

As for NCI-H2342, the relative viability in the experiment with Vismodegib + OSI-027 (first compound 0.08 µM) turned out to be 0.698; with Vismodegib + OSI-027 (first compound 0.253 µM), 0.651; with Vismodegib + OSI-027 (first compound 0.8 µM), 0.522; in the experiment with Vismodegib + OSI-027 (first compound 2.53 µM), 0.627; with Vismodegib + OSI-027 (first compound 8 µM) it was 0.637; in experiment [1] (first compound 0.08 µM) it was 0.53. The relative viability amounted to 0.496 in experiment [1] (first compound 0.253 µM); 0.49 in experiment [1] (first compound 0.8 µM); 0.543 in experiment [1] (first compound 2.53 µM); 0.541 in experiment [1] (first compound 8 µM); 1.07 with Ruxolitinib + Foretinib (first compound 0.08 µM); 0.936 in the experiment with Ruxolitinib + Foretinib (first compound 0.253 µM). Besides, the figures for the relative viability with Ruxolitinib + Foretinib (first compound 0.8 µM), with Ruxolitinib + Foretinib (first compound 2.53 µM) and with Ruxolitinib + Foretinib (first compound 8 µM) were 1.17, 1.07 and 1.11, respectively.

For SW 900, the relative viability with Vismodegib + OSI-027 (first compound 0.08 µM) was found to be 0.62; with Vismodegib + OSI-027 (first compound 0.253 µM), 0.395; with Vismodegib + OSI-027 (first compound 0.8 µM), 0.432; with Vismodegib + OSI-027 (first compound 2.53 µM), 0.616; with Vismodegib + OSI-027 (first compound 8 µM) it was 0.637; in experiment [1] (first compound 0.08 µM) it was 0.477. In addition, the relative viability is 0.589 in experiment [1] (first compound 0.253 µM); 0.625 in experiment [1] (first compound 0.8 µM); 0.624 in experiment [1] (first compound 2.53 µM); 0.532 in experiment [1] (first compound 8 µM); 0.88 with Ruxolitinib + Foretinib (first compound 0.08 µM); 0.806 in the experiment with Ruxolitinib + Foretinib (first compound 0.253 µM). For the same cell line, the relative viability with Ruxolitinib + Foretinib (first compound 0.8 µM) was 1.01; in the experiment with Ruxolitinib + Foretinib (first compound 2.53 µM), 0.912; in the experiment with Ruxolitinib + Foretinib (first compound 8 µM), 1.11.
